The text below walks through data of paper PMC5467694 (European journal of pharmacology, 2009).

A value given as a limit tells only on which side of the number the result lay.

In one data set the target is recombinant human Neu1 (Homo sapiens, UniProt Q99519). The data set can be described thus: NA inhibition assay, recombinant human Neu1. The class given is biochemical.
In a further data set the target is recombinant human Neu2 (Homo sapiens, UniProt Q9Y3R4). The data set can be described thus: NA inhibition assay, recombinant human Neu2. It counts as biochemical.
Another data set has as its target T1, recombinant human Neu3 (Homo sapiens, UniProt Q9UQ49).
T1 sequence (Q9UQ49 1-428): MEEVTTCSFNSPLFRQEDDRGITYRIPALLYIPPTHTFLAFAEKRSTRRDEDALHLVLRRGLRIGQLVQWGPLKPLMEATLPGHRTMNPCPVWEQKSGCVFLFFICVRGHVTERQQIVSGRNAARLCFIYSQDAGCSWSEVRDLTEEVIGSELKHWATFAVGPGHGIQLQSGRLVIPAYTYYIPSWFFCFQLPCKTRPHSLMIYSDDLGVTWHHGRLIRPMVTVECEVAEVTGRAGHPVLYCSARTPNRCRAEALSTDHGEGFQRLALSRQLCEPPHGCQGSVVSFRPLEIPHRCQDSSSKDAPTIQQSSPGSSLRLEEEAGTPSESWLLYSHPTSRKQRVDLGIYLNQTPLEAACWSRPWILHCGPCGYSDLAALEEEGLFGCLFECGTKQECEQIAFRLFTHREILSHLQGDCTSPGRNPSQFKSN
The data set can be described thus: NA inhibition assay, recombinant human Neu3. The class given is biochemical.

Another data set concerns the target T2, recombinant human Neu4 (Homo sapiens, UniProt Q8WWR8).
T2 sequence (Q8WWR8 1-484): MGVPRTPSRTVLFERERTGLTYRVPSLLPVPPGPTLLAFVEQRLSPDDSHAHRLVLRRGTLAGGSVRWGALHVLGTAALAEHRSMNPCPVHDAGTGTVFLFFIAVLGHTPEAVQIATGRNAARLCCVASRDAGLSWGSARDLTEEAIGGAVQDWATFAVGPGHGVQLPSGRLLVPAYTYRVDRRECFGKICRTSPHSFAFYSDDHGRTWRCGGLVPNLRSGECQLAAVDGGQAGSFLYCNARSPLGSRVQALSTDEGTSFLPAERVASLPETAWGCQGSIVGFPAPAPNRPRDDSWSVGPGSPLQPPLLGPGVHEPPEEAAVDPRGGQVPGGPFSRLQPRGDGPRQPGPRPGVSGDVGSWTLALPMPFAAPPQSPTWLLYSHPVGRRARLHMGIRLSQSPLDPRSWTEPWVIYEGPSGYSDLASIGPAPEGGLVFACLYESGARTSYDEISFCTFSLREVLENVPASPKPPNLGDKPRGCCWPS
The data set can be described thus: NA inhibition assay, recombinant human Neu4. The class given is biochemical.

Data set [1] relates to native non-human primate brain NA activity (microsomal and membrane fractions). The data set can be described thus: NA inhibition assay, non-human primate brain extracts. The class given is biochemical, Macaca fascicularis.
The subject of data set [2] is NA activity in rat brain tissue. The data set can be described thus: NA inhibition assay, rat brain-derived tissue. The conditions noted are these: concentrations up to 1 mM. The class given is biochemical.
In data set [3] the test system is recombinant human NAs Neu1–4. The data set can be described thus: NA inhibition assay, all 4 recombinant human NAs. The conditions noted are these: for partial inhibition of all 4 human NAs: concentrations higher than 1 mM; for inhibition of all 4 human NAs: up to a concentration of 1 mM. It counts as biochemical.
Data set [4] concerns panel of 155 molecular targets unrelated to NAs. The data set can be described thus: Selectivity panel of 155 molecular targets unrelated to NAs. To be noted: for pharmacological activity on panel targets: 3 and 30 μM, 50% cut-off for relevance; for low levels of activity, inhibition/stimulation, on eleven targets: at either 3 μM or 30 μM.
Data set [5] deals with recombinant α1β2γ2 GABAA receptor (Homo sapiens, UniProt P14867+P18507+P47870). The data set can be described thus: Electrophysiological GABAA patch-clamp assay. The class given is cell-based.
The nature of data set [6]: Steady-state exposure in adults, standard regimen. The class given is in vivo, human. The conditions noted are these: 75 mg twice daily for 5 days.
Another data set has as its system human Neu1. The conditions noted are these: read-out: IC50 on human Neu1; recombinant; ref Hata et al. (2008); cited from earlier work.
Another data set deals with human Neu2. The conditions noted are these: read-out: IC50 on human Neu2; recombinant; ref Hata et al. (2008); cited from earlier work.
The subject of another data set is human Neu3. The conditions noted are these: read-out: IC50 on human Neu3; recombinant; ref Hata et al. (2008); cited from earlier work.
Another data set has as its system human Neu4. To be noted: read-out: IC50 on human Neu4; recombinant; ref Hata et al. (2008); cited from earlier work.
For data set [7], the system named is NA activity of different viral strains. The conditions noted are these: read-out: IC50 on NA activity of different viral strains; ref Hata et al. (2008); cited from earlier work.
The subject of another data set is recombinant human NAs. The conditions noted are these: concentrations up to 1 mM; ref Hata et al. (2008); cited from earlier work.
Data set [8] concerns Gαi- and Gαs-linked G protein-coupled receptors in whole rat brain membranes. To be noted: ref Satoh et al. (2007); cited from earlier work.
Data set [9] addresses recombinant influenza virus NA (Influenza A virus, UniProt Q30NP8). The data set can be described thus: NA inhibition assay, recombinant influenza virus NA. The class given is biochemical, influenza strain A/Beijing/39/1975 H3N2.
Setting [10] is: concentrations higher than 1 mM.
The mark [11] stands for this setting: concentrations higher than 5 mM.
[12] abbreviates: concentrations higher than 2 mM.
The mark [13] stands for this setting: concentrations higher than 10 mM.
Where [14] appears, read: microsomal and membrane fractions, concentrations up to 10 mM.

Sequence of recombinant human Neu2 (Q9Y3R4 whole entry): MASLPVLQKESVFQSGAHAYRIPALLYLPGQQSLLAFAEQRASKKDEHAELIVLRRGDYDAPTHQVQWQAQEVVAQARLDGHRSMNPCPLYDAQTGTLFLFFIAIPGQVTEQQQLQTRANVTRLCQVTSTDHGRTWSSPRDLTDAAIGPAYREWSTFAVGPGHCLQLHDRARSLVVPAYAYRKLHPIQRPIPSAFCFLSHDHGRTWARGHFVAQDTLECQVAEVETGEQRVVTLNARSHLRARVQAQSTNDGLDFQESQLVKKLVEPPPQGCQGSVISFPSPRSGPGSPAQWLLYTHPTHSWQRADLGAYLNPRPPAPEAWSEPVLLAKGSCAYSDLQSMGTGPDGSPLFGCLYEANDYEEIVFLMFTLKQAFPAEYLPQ
Sequence of recombinant α1β2γ2 GABAA receptor (P14867 28-456): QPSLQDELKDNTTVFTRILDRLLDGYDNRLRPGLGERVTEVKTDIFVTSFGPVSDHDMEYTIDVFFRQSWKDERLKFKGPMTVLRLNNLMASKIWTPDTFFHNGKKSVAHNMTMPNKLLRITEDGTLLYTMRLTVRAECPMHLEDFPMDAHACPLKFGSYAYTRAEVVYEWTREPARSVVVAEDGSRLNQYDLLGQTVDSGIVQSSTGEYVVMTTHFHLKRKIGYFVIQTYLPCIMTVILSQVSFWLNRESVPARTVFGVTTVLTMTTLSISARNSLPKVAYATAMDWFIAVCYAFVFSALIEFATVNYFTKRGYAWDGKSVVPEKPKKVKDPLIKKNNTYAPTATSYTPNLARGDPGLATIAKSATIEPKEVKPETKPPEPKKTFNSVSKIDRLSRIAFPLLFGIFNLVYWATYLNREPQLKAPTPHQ
Sequence of recombinant α1β2γ2 GABAA receptor (P47870 25-512 limits assumed): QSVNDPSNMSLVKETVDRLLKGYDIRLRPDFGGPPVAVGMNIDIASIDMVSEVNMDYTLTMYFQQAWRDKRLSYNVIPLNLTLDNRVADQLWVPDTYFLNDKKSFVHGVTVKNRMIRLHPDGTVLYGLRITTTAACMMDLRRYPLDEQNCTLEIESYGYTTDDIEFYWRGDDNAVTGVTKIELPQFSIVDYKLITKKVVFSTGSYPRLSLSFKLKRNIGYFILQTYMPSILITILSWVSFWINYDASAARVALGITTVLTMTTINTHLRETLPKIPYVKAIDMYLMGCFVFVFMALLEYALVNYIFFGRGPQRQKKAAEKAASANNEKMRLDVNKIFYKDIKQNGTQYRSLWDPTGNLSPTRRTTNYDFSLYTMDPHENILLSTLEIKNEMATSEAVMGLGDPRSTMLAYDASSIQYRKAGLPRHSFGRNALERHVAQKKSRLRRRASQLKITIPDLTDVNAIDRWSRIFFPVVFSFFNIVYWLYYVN
Sequence of recombinant α1β2γ2 GABAA receptor (P18507 40-475): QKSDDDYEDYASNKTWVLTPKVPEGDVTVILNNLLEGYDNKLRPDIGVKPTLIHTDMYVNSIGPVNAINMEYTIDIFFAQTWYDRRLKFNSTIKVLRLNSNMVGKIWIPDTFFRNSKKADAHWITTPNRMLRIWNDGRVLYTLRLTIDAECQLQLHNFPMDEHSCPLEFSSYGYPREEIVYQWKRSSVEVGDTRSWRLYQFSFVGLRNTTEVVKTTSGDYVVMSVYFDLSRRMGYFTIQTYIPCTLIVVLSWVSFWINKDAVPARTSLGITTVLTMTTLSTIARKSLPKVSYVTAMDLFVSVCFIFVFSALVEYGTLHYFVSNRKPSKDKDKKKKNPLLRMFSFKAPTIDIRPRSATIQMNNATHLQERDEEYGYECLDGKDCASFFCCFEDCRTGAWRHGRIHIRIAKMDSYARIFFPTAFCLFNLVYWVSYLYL
Sequence of recombinant influenza virus NA (Q30NP8 whole entry, looked up): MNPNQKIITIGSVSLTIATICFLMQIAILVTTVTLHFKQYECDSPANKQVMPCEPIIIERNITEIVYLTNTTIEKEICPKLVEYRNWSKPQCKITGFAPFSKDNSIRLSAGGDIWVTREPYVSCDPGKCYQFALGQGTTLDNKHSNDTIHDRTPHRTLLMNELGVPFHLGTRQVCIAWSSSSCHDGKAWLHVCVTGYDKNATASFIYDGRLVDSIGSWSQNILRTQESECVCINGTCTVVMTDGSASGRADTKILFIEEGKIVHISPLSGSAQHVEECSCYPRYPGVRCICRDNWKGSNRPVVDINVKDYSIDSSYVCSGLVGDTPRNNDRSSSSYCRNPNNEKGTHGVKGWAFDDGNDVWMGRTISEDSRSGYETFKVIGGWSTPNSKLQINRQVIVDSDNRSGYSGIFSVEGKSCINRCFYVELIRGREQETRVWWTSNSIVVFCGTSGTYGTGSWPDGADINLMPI

On to `CCC(CC)O[C@@H]1C=C(C(=O)O)C[C@H](N)[C@H]1NC(C)=O` [OC, oseltamivir carboxylate], for which the “inhibitory activity on Neu1” value at recombinant human Neu1 (setting [10]) is “partial inhibition”; on recombinant human Neu1 (concentrations up to 1 mM) it was “no inhibitory activity”. Also, the “inhibitory activity on Neu2” value at recombinant human Neu2 (setting [11]) was “partial inhibition”; on recombinant human Neu2 (concentrations up to 5 mM) it was “no inhibition”. Further, the “inhibitory activity on Neu3” value at recombinant human Neu3 (setting [11]) is listed as “partial inhibition”; on recombinant human Neu3 (concentrations up to 5 mM), “no inhibition”. The “inhibitory activity on Neu4” value at recombinant human Neu4 (setting [12]) is “trend for an inhibitory activity”; at recombinant human Neu4 (concentrations up to 2 mM) it was “no inhibition”. Also, the entries for the “inhibition of non-human primate brain NA activity” value in [1] (setting [13]) and in data set [1] (setting [14]) were “partial inhibition” and “no inhibition”, respectively. For the same compound, in data set [2], the “inhibition of NA activity in rat brain tissue” value is “no inhibition”. Also, the “partial inhibition of all 4 human NAs” value in [3] is on record as 20–40%. Moreover, the “inhibition of all 4 human NAs” value in data set [3] is “no inhibition”. Moreover, the “pharmacological activity on panel targets” value in data set [4] is “no relevant pharmacological activity”. Also, in data set [4], the “low levels of activity, inhibition/stimulation, on eleven targets” value is given as 20–27%. Besides, the “activity on GABAA in patch-clamp, on GABA and pentobarbital” value in [5] is on record as “lack of any significant, inhibitory, excitatory or modulatory activity”. Also, in [6], the “extrapolated brain Cmax” value was ~ 77 nM. Also, the IC50 – broadly, the concentration that inhibits the measured activity by half – was above 10 mM with human Neu1; above 6 mM with human Neu2; above 10 mM in the data set on human Neu3; above 10 mM in the data set with human Neu4; 1.6 to 7.1 nM in data set [7]. Also, the “inhibitory activity on any of the human NAs” value with recombinant human NAs was “no or negligible inhibitory activity”. For the same compound, the “effect on [35S]-GTP-γS binding” value in data set [8] is on record as “no effect”.
For the compound `CCOC(=O)C1=C[C@@H](OC(CC)CC)[C@H](NC(C)=O)[C@@H](N)C1` [OP, oseltamivir phosphate], the entries for the “inhibitory activity on Neu1” value on recombinant human Neu1 (setting [10]) and at recombinant human Neu1 (concentrations up to 1 mM) were “partial inhibition” and “no inhibitory activity”, respectively. For the same compound, the “inhibitory activity on Neu2” value is listed as “partial inhibition” at recombinant human Neu2 (setting [11]) and “no inhibition” on recombinant human Neu2 (concentrations up to 5 mM). The “inhibitory activity on Neu3” value was “partial inhibition” at recombinant human Neu3 (setting [11]) and “no inhibition” at recombinant human Neu3 (concentrations up to 5 mM). Also, the “inhibitory activity on Neu4” value is “trend for an inhibitory activity” on recombinant human Neu4 (setting [12]) and “no inhibition” at recombinant human Neu4 (concentrations up to 2 mM). Besides, the concentration for half-maximal inhibition (IC50) in data set [9] was around 0.01 mM. In addition, the “inhibition of non-human primate brain NA activity” value in data set [1] (setting [13]) is recorded as “partial inhibition”; in [1] (setting [14]), “no inhibition”. Besides, the “inhibition of NA activity in rat brain tissue” value in [2] is listed as “no inhibition”. Moreover, the “partial inhibition of all 4 human NAs” value in data set [3] is recorded as 20–40%. The “inhibition of all 4 human NAs” value in [3] is “no inhibition”. Further, the “pharmacological activity on panel targets” value in data set [4] was “no relevant pharmacological activity”. Further, the “low levels of activity, inhibition/stimulation, on eleven targets” value in data set [4] is on record as 20–41%. Also, the “activity on GABAA in patch-clamp, on GABA and pentobarbital” value in data set [5] is “lack of any significant, inhibitory, excitatory or modulatory activity”. The “extrapolated brain Cmax” value in data set [6] was ~ 6.7 nM. The “effect on [35S]-GTP-γS binding” value in data set [8] is “no effect”.
